Data from patent publication US20240158756A1, “FEEDER-BASED AND FEEDER-FREE STEM CELL CULTURE SYSTEMS FOR STRATIFIED EPITHELIAL STEM CELLS, AND USES RELATED THERETO” (University of Houston System, priority 2019, published 2024).

How the values were obtained:
ALK5 (TGF-β RI) = target: T1, ALK5 (TGF-β RI) (Homo sapiens, UniProt P36897); conditions: high concentrations, approximate; cited from earlier work
T1 sequence (P36897 34-503): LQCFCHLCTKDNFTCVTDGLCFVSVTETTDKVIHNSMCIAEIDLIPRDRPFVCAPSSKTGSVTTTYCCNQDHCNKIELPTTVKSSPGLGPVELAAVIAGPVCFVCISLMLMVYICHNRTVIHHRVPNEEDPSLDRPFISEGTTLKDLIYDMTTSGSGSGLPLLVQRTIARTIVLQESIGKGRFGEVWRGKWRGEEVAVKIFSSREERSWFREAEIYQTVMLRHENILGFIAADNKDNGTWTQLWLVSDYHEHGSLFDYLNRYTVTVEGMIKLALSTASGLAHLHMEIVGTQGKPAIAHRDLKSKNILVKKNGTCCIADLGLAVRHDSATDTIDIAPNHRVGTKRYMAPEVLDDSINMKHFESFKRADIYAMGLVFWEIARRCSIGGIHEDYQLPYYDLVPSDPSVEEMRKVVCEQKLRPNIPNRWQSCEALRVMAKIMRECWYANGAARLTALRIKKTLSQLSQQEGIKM

[1] = system: epithelial stem cells derived from human tissues or other mammals; assay: Feeder-free epithelial stem cell culture; assay type: cell-based
From the text: (§1) Another illustrative system is a medium referred to as SGM-63+. The SGM-63+ medium has been tested and proven to support robust growth of epithelial stem cells derived from human tissues or other mammals in the absence of the irradiate feeder of mouse fibroblast cells (3T3-J2). For example, lung stem cells, esophagus stem cell, bladder stem cells and ovarian cancer stem cells, can all grow robustly in this culture system that comprises SGM-63+ medium without the need of irradiated 3T3-J2 feeders in the illustrated example.
(§2) The base medium comprises DMEM, F12, FBS, L-glutamine, Adenine, Pen/Strep, Insulin, T3, Hydrocortisone, EGF and is further added a Rock inhibitor, TGF-beta inhibitor, BMP4 inhibitor, VEGF inhibitor, TrkA inhibitor, Ponatinib, CK2 inhibitor, Syk inhibitor, LPA Receptor antagonist, Oct 4-activating compound 1, GSK3 inhibitor and FGF10. […] R-spondin was found not required to support the self-renewal and multipotency of stratified epithelial stem cells.

[2] = system: epithelial stem cells derived from human tissues or other mammals; assay: Epithelial stem cell culture on irradiated 3T3-J2 feeder; conditions: feeder-based medium
From the text: as §1, with “An” for “Another”, “SQM.” for “SGM-63+.”, “SQM” for “SGM-63+”, “presence” for “absence”, “SQM medium, along with” for “SGM-63+ medium without the need of”
as §2, with “Ponatinib” for “Ponatinib, CK2 inhibitor, Syk inhibitor, LPA Receptor antagonist, Oct 4-activating compound 1, GSK3 inhibitor”

Molecule	concentration at which ALK5 may be inhibited (ALK5 (TGF-β RI)) [µM]	effect of inclusion in the medium on epithelial stem cell self-renewal [1]	effect of inclusion in the medium on epithelial stem cell self-renewal [2]
4-[5-(4-Fluorophenyl)-2-[4-(methylsulfonyl)phenyl]-1H-imidazol-4-yl]pyridine [SB-203580]	≥ 10	–	–
NC(=O)c1cccnc1 [nicotinamide]	–	induce the abortion of some epithelial stem cell (lung, esophagus etc) self-renewal	induce the abortion of some epithelial stem cell (lung, esophagus etc) self-renewal
jagged1: Notch agonist, surface-bound or secreted Notch ligand	–	induce the abortion of some epithelial stem cell (lung, esophagus etc) self-renewal	induce the abortion of some epithelial stem cell (lung, esophagus etc) self-renewal
